Measurements reported in ChEMBL document CHEMBL1201862, “PubChem BioAssay data set” (2004).
Counter-ions that a name gives are not always drawn.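 Interpolation was linear, between the two tested concentrations surrounding the appropriate level; five concentrations were tested over 48 hours in 96-well plates. GI50 is the concentration that inhibits growth by half.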 Calls of active or inactive are those of the source. Rule as the data show it: active = GI50 up to about 1.1 µM and inactive = higher.

Tests used:
Assay in all cases: NCI tumour cell line growth inhibition, 48 h
ACHN = system: ACHN
CCRF-CEM = system: CCRF-CEM
EKVX = system: EKVX
HCC 2998 = system: HCC 2998
KM12 = system: KM12
MCF7 = system: MCF7
MDA-N = system: MDA-N
Malme-3M = system: Malme-3M
OVCAR-3 = system: OVCAR-3
OVCAR-4 = system: OVCAR-4
OVCAR-8 = system: OVCAR-8
PC-3 = system: PC-3
SF-539 = system: SF-539
SK-MEL-28 = system: SK-MEL-28
SR = system: SR
T47D = system: T47D
TK-10 = system: TK-10
U-251 = system: U-251
DU-145 = system: DU-145
HL-60 = system: HL-60

Row | Structure (SMILES) | GI50 (ACHN) | GI50 (CCRF-CEM) | GI50 (EKVX) | GI50 (HCC 2998) | GI50 (KM12) | GI50 (MCF7) | GI50 (MDA-N) | GI50 (Malme-3M) | GI50 (OVCAR-3) | GI50 (OVCAR-4) | GI50 (OVCAR-8) | GI50 (PC-3) | GI50 (SF-539) | GI50 (SK-MEL-28) | GI50 (SR) | GI50 (T47D) | GI50 (TK-10) | GI50 (U-251) | GI50 (DU-145) | GI50 (HL-60)
1 | CC1CC/C(=C\c2ccc(N(C)C)cc2)C(=O)/C1=C/c1ccc(N(C)C)cc1 (stereo unspecified) | > 100 µM (inactive) | > 100 µM (inactive) | > 100 µM (inactive) | > 100 µM (inactive) | > 100 µM (inactive) | > 100 µM (inactive) | > 100 µM (inactive) | 0.228 µM (active) | > 100 µM (inactive) | > 100 µM (inactive) | > 100 µM (inactive) | > 100 µM (inactive) | > 100 µM (inactive) | > 100 µM (inactive) | > 100 µM (inactive) | > 100 µM (inactive) | > 100 µM (inactive) | > 100 µM (inactive) | – | –
2 | Cc1n[nH]c(=O)n1/N=C/c1cccs1 | > 100 µM (inactive) | > 100 µM (inactive) | > 100 µM (inactive) | > 100 µM (inactive) | > 100 µM (inactive) | > 100 µM (inactive) | > 100 µM (inactive) | > 100 µM (inactive) | > 100 µM (inactive) | > 100 µM (inactive) | > 100 µM (inactive) | > 100 µM (inactive) | > 100 µM (inactive) | > 100 µM (inactive) | – | > 100 µM (inactive) | – | > 100 µM (inactive) | > 100 µM (inactive) | –
3 | [O-][n+]1c2cccc(O)c2[n+]([O-])c2cccc(O)c21 | 14.2 µM (inactive) | 5.56 µM (inactive) | 23.8 µM (inactive) | – | 37.5 µM (inactive) | 20.7 µM (inactive) | > 100 µM (inactive) | – | 29.2 µM (inactive) | 42.7 µM (inactive) | 25.9 µM (inactive) | 53.1 µM (inactive) | 32.7 µM (inactive) | – | – | 40.2 µM (inactive) | 23.4 µM (inactive) | 43.3 µM (inactive) | > 100 µM (inactive) | 47.9 µM (inactive)
4 | CC(C)(C)C(=O)OC(N)/C=C/c1ccccc1 (stereo unspecified) | > 100 µM (inactive) | > 100 µM (inactive) | > 100 µM (inactive) | > 100 µM (inactive) | > 100 µM (inactive) | > 100 µM (inactive) | > 100 µM (inactive) | > 100 µM (inactive) | > 100 µM (inactive) | > 100 µM (inactive) | > 100 µM (inactive) | > 100 µM (inactive) | > 100 µM (inactive) | > 100 µM (inactive) | 94 µM (inactive) | > 100 µM (inactive) | – | > 100 µM (inactive) | – | 76.2 µM (inactive)
5 | O=C(O)c1ccccc1SCc1cccc2c(=O)c3ccc(Cl)cc3oc12 | 32.4 µM (inactive) | > 50 µM (inactive) | > 50 µM (inactive) | > 50 µM (inactive) | > 50 µM (inactive) | > 50 µM (inactive) | > 50 µM (inactive) | 10.7 µM (inactive) | > 50 µM (inactive) | 41.5 µM (inactive) | > 50 µM (inactive) | 26.8 µM (inactive) | 19.5 µM (inactive) | > 50 µM (inactive) | 39 µM (inactive) | > 50 µM (inactive) | 29.8 µM (inactive) | 17.5 µM (inactive) | – | 11 µM (inactive)
6 | Cn1c(COC(=O)NC2CCCCC2)c(COC(=O)NC2CCCCC2)c2ccc3cc(Cl)c(Cl)cc3c21 | 14.3 µM (inactive) | 3.27 µM (inactive) | 27.7 µM (inactive) | 13.7 µM (inactive) | 15.6 µM (inactive) | 4.03 µM (inactive) | 12.6 µM (inactive) | 6.43 µM (inactive) | 15.1 µM (inactive) | – | 28.2 µM (inactive) | 15.3 µM (inactive) | 14.8 µM (inactive) | 12.5 µM (inactive) | – | 5.37 µM (inactive) | 16.7 µM (inactive) | 6 µM (inactive) | 28.6 µM (inactive) | 9.62 µM (inactive)
7 | Clc1ccc2c(NCCCC/N=C/c3ccccc3)ccnc2c1 | 12.5 µM (inactive) | 6.49 µM (inactive) | 15.5 µM (inactive) | 14.5 µM (inactive) | 7.98 µM (inactive) | 11.1 µM (inactive) | 11.7 µM (inactive) | 14.4 µM (inactive) | 16.5 µM (inactive) | 10.5 µM (inactive) | 11.2 µM (inactive) | 10.4 µM (inactive) | 11.9 µM (inactive) | 15 µM (inactive) | – | 12.6 µM (inactive) | 18.6 µM (inactive) | 11 µM (inactive) | 20.7 µM (inactive) | –
8 | C=C1C[C@@H]2CC[C@@]34C[C@H]5O[C@H]6[C@@H](O3)[C@H]3O[C@H](CC[C@@H]3O[C@H]6[C@H]5O4)CC(=O)C[C@@H]3[C@@H](OC)[C@@H](C[C@H](O)CN)O[C@H]3C[C@H]3O[C@@H](CC[C@@H]1O2)C[C@@H](C)C3=C [ERIBULIN MESYLATE] | 0.0556 µM (active) | – | 0.007 µM (active) | 0.00201 µM (active) | 0.000326 µM (active) | 0.000383 µM (active) | 7.59e-05 µM (active) | 0.00366 µM (active) | 9.59e-05 µM (active) | 0.00319 µM (active) | 0.00598 µM (active) | 0.00037 µM (active) | 0.000465 µM (active) | 0.00361 µM (active) | – | < 0.0001 µM (active) | 0.0815 µM (active) | 0.00134 µM (active) | 0.00118 µM (active) | –
